From patent US7786141B2 (Vertex Pharmaceuticals Incorporated, priority 2004, dated 2010)
Like-named read-outs stand apart in the source and are kept apart here.

Experiments:
M1 muscarinic receptor = biological target: T1, M1 muscarinic receptor (Homo sapiens, UniProt P11229); experiment: Functional mobilization of intracellular calcium (FLIPR) in M1-CHO cells; assay type: cell-based
T1 construct: expressed in transfected cells; host or cells: CHO (M1-CHO)
T1 sequence (P11229 1-460): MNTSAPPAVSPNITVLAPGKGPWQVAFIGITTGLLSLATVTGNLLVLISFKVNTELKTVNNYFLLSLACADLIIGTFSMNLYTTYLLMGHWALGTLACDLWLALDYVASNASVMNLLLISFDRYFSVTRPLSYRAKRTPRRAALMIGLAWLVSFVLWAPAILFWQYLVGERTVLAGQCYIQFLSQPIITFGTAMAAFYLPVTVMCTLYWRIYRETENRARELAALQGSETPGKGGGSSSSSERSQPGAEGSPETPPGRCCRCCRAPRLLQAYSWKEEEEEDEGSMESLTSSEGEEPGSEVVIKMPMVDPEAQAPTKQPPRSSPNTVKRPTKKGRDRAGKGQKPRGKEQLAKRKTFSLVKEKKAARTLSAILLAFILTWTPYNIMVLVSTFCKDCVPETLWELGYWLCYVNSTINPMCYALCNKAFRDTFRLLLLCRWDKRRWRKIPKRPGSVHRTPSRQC
Procedure, shortened: (§1)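 Two modes: direct compound addition for agonism, or 15 min compound pre-incubation (or co-application) before carbachol at EC80 for inhibition. Calcium signal from Fluo-3 AM or Calcium 3 dye in CHO cells, 1 mM probenecid, pH 7.4, read 60 sec at 488/540 nm; DMSO 0.5% final.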

M4 muscarinic receptor = biological target: T2, M4 muscarinic receptor (Homo sapiens, UniProt P08173); experiment: Functional mobilization of intracellular calcium (FLIPR) in M4-CHO cells; assay type: cell-based
T2 construct: expressed in transfected cells; host or cells: CHO (M4-CHO)
T2 sequence (P08173 1-479): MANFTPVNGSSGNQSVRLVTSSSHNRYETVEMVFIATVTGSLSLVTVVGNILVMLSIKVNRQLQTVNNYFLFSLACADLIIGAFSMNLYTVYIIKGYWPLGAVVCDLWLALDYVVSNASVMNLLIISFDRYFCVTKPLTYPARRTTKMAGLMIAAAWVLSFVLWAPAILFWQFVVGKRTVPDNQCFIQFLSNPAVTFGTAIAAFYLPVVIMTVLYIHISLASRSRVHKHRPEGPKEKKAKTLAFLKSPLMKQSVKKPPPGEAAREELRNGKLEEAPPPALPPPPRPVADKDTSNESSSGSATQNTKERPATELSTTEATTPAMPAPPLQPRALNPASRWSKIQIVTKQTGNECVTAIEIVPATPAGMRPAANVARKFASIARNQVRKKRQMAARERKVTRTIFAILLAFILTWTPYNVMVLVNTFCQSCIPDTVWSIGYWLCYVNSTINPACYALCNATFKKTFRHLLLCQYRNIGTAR
Procedure, shortened: as §1

[1] = M1 receptor, calcium mobilization
[2] = M1 receptor, calcium mobilization, read-out: M1 Efficacy
[3] = M4 receptor, calcium mobilization
[4] = M4 receptor, calcium mobilization, read-out: M4 Efficacy
[5] = Table 4, 100% efficacy is the maximum response obtained with the Carbachol control
[6] = Table 4, modulating M1 receptor
[7] = Table 4, modulating M4 receptor
[8] = M1-CHO cells, calcium mobilization (FLIPR)
[9] = M1-CHO cells, calcium mobilization (FLIPR), read-out: M1 Efficacy
[10] = M4-CHO cells, calcium mobilization (FLIPR)
[11] = M4-CHO cells, calcium mobilization (FLIPR), read-out: M4 Efficacy
[12] = Table 4, M1 receptor, calcium mobilization (FLIPR)
[13] = Table 4, M4 receptor, calcium mobilization (FLIPR)
[14] = 100% efficacy is the maximum response obtained with the Carbachol control, Table 5

Compound	Emax (M1 muscarinic receptor; [5]) [%]	Emax (M4 muscarinic receptor; [5]) [%]	M1 Activity (M1 muscarinic receptor; [6])	M4 Activity (M4 muscarinic receptor; [7])	other results
C1=C[C@H]2C[C@H]1C[C@H]2CN1CCC2(CCc3ccccc32)CC1 [compound 313]					M1 Activity (M1 muscarinic receptor; [1]): x (activity was measured to be greater than 1.0 μM); Emax (M1 muscarinic receptor; [2]): < 65%; M4 Activity (M4 muscarinic receptor; [3]): x (activity was measured to be greater than 1.0 μM); Emax (M4 muscarinic receptor; [4]): < 65%
c1ccc2c(c1)CCCC21CCN(CC2CCCCC2)CC1 [compound 802]	25 to 100	25 to 100			
CC#CCOC(=O)N1CCC(N2CCC3(CC2)CN(C(C)=O)c2ccccc23)CC1 [compound 672]	25 to 100	25 to 100	xxx (activity was measured to be less than 2.0 μM)	xxx (activity was measured to be less than 2.0 μM)	
CC(C)C(=O)N[C@@H]1CC2(CCN(C[C@H]3C[C@H]4CC[C@H]3C4)CC2)c2ccccc21 [compound 432]	< 25	< 25	x (activity was measured to be greater than 5.0 μM)	x (activity was measured to be greater than 5.0 μM)	
CC(=O)N1CC2(CCN(C3CCN(c4ncc(C)s4)CC3)CC2)c2ccccc21 [compound 794]	< 25	< 25	x (activity was measured to be greater than 5.0 μM)	x (activity was measured to be greater than 5.0 μM)	
CCOC(=O)N1CCC(N2CCC3(CC2)CN(C(=O)c2cccnc2)c2ccc(F)cc23)CC1 [compound 144]					M1 Activity (M1 muscarinic receptor; [1]): xxx (activity was measured to be less than 0.1 μM); Emax (M1 muscarinic receptor; [2]): > 85%; M4 Activity (M4 muscarinic receptor; [3]): xxx (activity was measured to be less than 0.1 μM); Emax (M4 muscarinic receptor; [4]): > 85%
CS(=O)(=O)N1CC2(CCN(C3CC4CCC(C3)N4C(=O)O[C@H]3CCOC3)CC2)c2cc(F)ccc21 (some centres unmarked) [compound 388]					EC50 (M1 muscarinic receptor; [8]): < 0.1 µM; Emax (M1 muscarinic receptor; [9]): 65 to 85%; EC50 (M4 muscarinic receptor; [10]): > 1 µM; Emax (M4 muscarinic receptor; [11]): < 65%
CCOC(=O)N1CCC(C)(CN2CCC3(CC2)C[C@H](NC(C)=O)c2ccccc23)CC1 [compound 315]					M1 Activity (M1 muscarinic receptor; [1]): x (activity was measured to be greater than 1.0 μM); Emax (M1 muscarinic receptor; [2]): < 65%; M4 Activity (M4 muscarinic receptor; [3]): x (activity was measured to be greater than 1.0 μM); Emax (M4 muscarinic receptor; [4]): < 65%
CCOC(=O)N1C2CCC1CC(N1CCC3(CCCc4ccccc43)CC1)C2 (centres unmarked) [compound 484]	25 to 100	25 to 100	xxx (activity was measured to be less than 2.0 μM)	xxx (activity was measured to be less than 2.0 μM)	
O=C1CC2(CCN([C@@H]3C[C@H]4CC[C@@H]3C4)CC2)c2ccc(Cl)cc21 [compound 901]	25 to 100	25 to 100			M1 Activity (M1 muscarinic receptor; [12]): xx (activity was measured to be between 2.0 μM and 5.0 μM); M4 Activity (M4 muscarinic receptor; [13]): xx (activity was measured to be between 2.0 μM and 5.0 μM)
CN(C)C(=O)N1CC2(CCN(C3CCN(c4ccncc4)CC3)CC2)c2cc(F)ccc21 [compound 458]	< 25	< 25	x (activity was measured to be greater than 5.0 μM)	x (activity was measured to be greater than 5.0 μM)	
O=C1CCCCC1N1CC2(CCN(C3CC4CCC(C4)C3)CC2)c2cc(F)ccc21 (centres unmarked) [compound 621]	25 to 100	25 to 100	xx (activity was measured to be between 2.0 μM and 5.0 μM)	xxx (activity was measured to be less than 2.0 μM)	
CN(C)C(=O)N1CC2(CCN(C[C@@H]3CCN(c4cnccn4)C3)CC2)c2cc(F)ccc21 [compound 1036]					Emax (M1 muscarinic receptor; [14]): 25 to 100%; EC50 (M1 muscarinic receptor; CHO cells expressing M1, calcium mobilization, Table 5): < 2 µM; Emax (M4 muscarinic receptor; [14]): 25 to 100%; EC50 (M4 muscarinic receptor; CHO cells expressing M4, calcium mobilization, Table 5): < 2 µM
O=C(N[C@H]1CC2(CCN([C@@H]3C[C@@H]4CC[C@@H]3C4)CC2)c2ccccc21)c1ccoc1 [compound 868]	< 25	25 to 100			M1 Activity (M1 muscarinic receptor; [12]): x (activity was measured to be greater than 5.0 μM); M4 Activity (M4 muscarinic receptor; [13]): xxx (activity was measured to be less than 2.0 μM)
CC1=C(CCN2CCC3(CC2)C[C@H](NC(=O)c2ccoc2)c2ccccc23)C(C)(C)CCC1 [compound 817]	< 25	< 25			M1 Activity (M1 muscarinic receptor; [12]): x (activity was measured to be greater than 5.0 μM); M4 Activity (M4 muscarinic receptor; [13]): x (activity was measured to be greater than 5.0 μM)
CC(=O)N1CC2(CCN(CC3=CCCCC3)CC2)c2cc(F)ccc21 [compound 163]					M1 Activity (M1 muscarinic receptor; [1]): xxx (activity was measured to be less than 0.1 μM); Emax (M1 muscarinic receptor; [2]): 65 to 85%; M4 Activity (M4 muscarinic receptor; [3]): xx (activity was measured to be between 0.1 μM and 1.0 μM); Emax (M4 muscarinic receptor; [4]): > 85%
CN(C)C(=O)N1CC2(CCN(C[C@H]3CCN(C(=O)OCC(F)F)C3)CC2)c2cc(F)ccc21 [compound 848]	25 to 100	> 100			M1 Activity (M1 muscarinic receptor; [12]): xxx (activity was measured to be less than 2.0 μM); M4 Activity (M4 muscarinic receptor; [13]): xxx (activity was measured to be less than 2.0 μM)
CCN(CC)C(=O)N[C@H]1CC2(CCN(C3CC4CC[C@@H]3C4)CC2)c2ccccc21 (some centres unmarked) [compound 755]	< 25	25 to 100	x (activity was measured to be greater than 5.0 μM)	xxx (activity was measured to be less than 2.0 μM)	
CN(C)C(=O)N1CC2(CCN(C3CCN(C(=O)C4CC4)CC3)CC2)c2cc(F)ccc21 [compound 701]	25 to 100	25 to 100	xxx (activity was measured to be less than 2.0 μM)	xxx (activity was measured to be less than 2.0 μM)	
CC(=O)N[C@H]1CC2(CCN(CC(=O)N3CCCCC3)CC2)c2ccccc21 [compound 792]	25 to 100	25 to 100	x (activity was measured to be greater than 5.0 μM)	x (activity was measured to be greater than 5.0 μM)	
COCCOC(=O)N1CC2(CCN(C3CC4CCC(C3)N4C(=O)OC(C)C)CC2)c2cc(F)ccc21 (centres unmarked) [compound 422]					EC50 (M1 muscarinic receptor; [8]): < 0.1 µM; Emax (M1 muscarinic receptor; [9]): < 65%; EC50 (M4 muscarinic receptor; [10]): > 1 µM; Emax (M4 muscarinic receptor; [11]): < 65%
CCOC(=O)N1C2CCC1CC(N1CCC3(CC1)CN(C(C)=O)c1ccc(S(C)(=O)=O)cc13)C2 (centres unmarked) [compound 580]	25 to 100	25 to 100	xxx (activity was measured to be less than 2.0 μM)	x (activity was measured to be greater than 5.0 μM)	
